Like-named read-outs stand apart in the source and are kept apart here.
[1] = 1M storage, table does not say which condition (30° C./65% or 40° C./75% RH)
[2] = 2M storage, table does not say which condition (30° C./65% or 40° C./75% RH)
[3] = 3M storage, table does not say which condition (30° C./65% or 40° C./75% RH)
[4] = 6M storage, table does not say which condition (30° C./65% or 40° C./75% RH)
[5] = 9M storage, table does not say which condition (30° C./65% or 40° C./75% RH)

Assay (by HPLC; on anhydrous basis) [1]: 99.19% w/w | Moisture Content (by KF method) [1]: 0.24% w/w | Assay (by HPLC; on anhydrous basis) [2]: 101.56% w/w | Moisture Content (by KF method) [2]: 0.26% w/w | Assay (by HPLC; on anhydrous basis) [3]: 101.41% w/w | Moisture Content (by KF method) [3]: 0.21% w/w | Assay (by HPLC; on anhydrous basis) [4]: 99.99% w/w | Moisture Content (by KF method) [4]: 0.17% w/w | Assay (by HPLC; on anhydrous basis) [5]: 100.40% w/w | Moisture Content (by KF method) [5]: 0.42% w/w | HPLC purity after 9 months stability (9 months): exceeding 99.8 % w/w by HPLC | Assay (by HPLC; on anhydrous basis) (Initial, limit >99.8%): 100.84% w/w | Moisture Content (by KF method) (Initial, limit not more than 0.5% w/w): 0.17% w/w | time over which the crystalline form was stable under storage (storage at 30° C./65±5%): up to 12 months | time over which the crystalline form was stable under storage (storage at 40° C./75±5%): up to 12 months
Structure (SMILES): C#Cc1cccc(Nc2ncnc3cc(OCCOC)c(OCCOC)cc23)c1.Cl [Form SEA, N-(3-ethynylphenyl)-6,7-bis (2-methoxy ethoxy)-4-quinazolinamine hydrochloride]
